# Results as given in ChEMBL document CHEMBL1697731, “Cheminformatics analysis of assertions mined from literature that describe drug-induced liver injury in different species” (Chem Res Toxicol, 2010).
# Assays:
# Hepatotoxicity [1] = assay: Literature-mined compound from Fourches et al multi-species drug-induced liver injury (DILI) dataset, effect in rodents; conditions: rodentia
# Hepatotoxicity [2] = assay: Literature-mined compound from Fourches et al multi-species drug-induced liver injury (DILI) dataset, effect in humans; conditions: human
# Hepatotoxicity [3] = assay: Literature-mined compound from Fourches et al multi-species drug-induced liver injury (DILI) dataset, effect in non-rodents
Compound,Hepatotoxicity (Hepatotoxicity [1]; Liver),Hepatotoxicity (Hepatotoxicity [2]; Liver),Hepatotoxicity (Hepatotoxicity [3]; Liver),Hepatotoxicity (Hepatotoxicity [1]),Hepatotoxicity (Hepatotoxicity [2]),Hepatotoxicity (Hepatotoxicity [3])
Nc1ccn([C@@H]2O[C@H](CO)[C@@H](O)[C@@H]2O)c(=O)n1 [CYTARABINE],drug-induced liver injury reported,drug-induced liver injury reported,no drug-induced liver injury reported,–,–,–
CCC[C@@H]1C[C@@H](C(=O)N[C@@H]([C@H]2O[C@H](SC)[C@H](O)[C@@H](O)[C@H]2O)[C@H](C)Cl)N(C)C1 [CLINDAMYCIN],–,–,–,no drug-induced liver injury reported,drug-induced liver injury reported,no drug-induced liver injury reported
CN1CCN(CCCN2c3ccccc3Sc3ccccc32)CC1 [PERAZINE],–,–,–,no drug-induced liver injury reported,drug-induced liver injury reported,no drug-induced liver injury reported
Nc1nc2ncc(CNc3ccc(C(=O)N[C@@H](CCC(=O)O)C(=O)O)cc3)nc2c(=O)[nH]1 [FOLIC ACID],–,–,–,drug-induced liver injury reported,drug-induced liver injury reported,no drug-induced liver injury reported
O[C@H]1[C@H](O)[C@@H](O)[C@H](O)[C@@H](O)[C@H]1O [INOSITOL],–,–,–,no drug-induced liver injury reported,drug-induced liver injury reported,no drug-induced liver injury reported
CN1CCC[C@H]1c1cccnc1 [NICOTINE],drug-induced liver injury reported,drug-induced liver injury reported,no drug-induced liver injury reported,–,–,–
CN(C)CCOC(=O)COc1ccc(Cl)cc1 [MECLOFENOXATE],–,–,–,drug-induced liver injury reported,no drug-induced liver injury reported,no drug-induced liver injury reported
O=c1[nH]cnc2c1ncn2[C@H]1CC[C@@H](CO)O1 [DIDANOSINE],–,–,–,drug-induced liver injury reported,drug-induced liver injury reported,no drug-induced liver injury reported
CN1CCN2c3ccccc3Cc3ccccc3C2C1 (centres undefined) [MIANSERIN],–,–,–,drug-induced liver injury reported,drug-induced liver injury reported,no drug-induced liver injury reported
CN/C(=N/CCSCc1nc[nH]c1C)NC#N [CIMETIDINE],drug-induced liver injury reported,drug-induced liver injury reported,drug-induced liver injury reported,–,–,–
O=C(O)COc1ccc(C(=O)c2cccs2)c(Cl)c1Cl,–,–,–,drug-induced liver injury reported,drug-induced liver injury reported,no drug-induced liver injury reported
Cc1cc(C)c(/C=C2\C(=O)Nc3ccccc32)[nH]1 [SEMAXANIB],–,–,–,drug-induced liver injury reported,drug-induced liver injury reported,no drug-induced liver injury reported
NCCCCCC(=O)O [AMINOCAPROIC ACID],–,–,–,no drug-induced liver injury reported,drug-induced liver injury reported,no drug-induced liver injury reported
CCC1(C2=CCCCC2)C(=O)NC(=O)NC1=O [CYCLOBARBITAL],–,–,–,drug-induced liver injury reported,no drug-induced liver injury reported,no drug-induced liver injury reported
CCn1nc(C(=O)O)c(=O)c2cc3c(cc21)OCO3 [CINOXACIN],–,–,–,no drug-induced liver injury reported,drug-induced liver injury reported,no drug-induced liver injury reported
NC1=NC(=O)C(c2ccccc2)O1 (centres undefined) [PEMOLINE],–,–,–,no drug-induced liver injury reported,drug-induced liver injury reported,no drug-induced liver injury reported
OC[C@H]1OC(O)[C@H](O)[C@@H](O)[C@@H]1O (some centres undefined) [DEXTROSE],–,–,–,drug-induced liver injury reported,drug-induced liver injury reported,drug-induced liver injury reported
CCCCN1CCCCC1C(=O)Nc1c(C)cccc1C (centres undefined) [BUPIVACAINE],–,–,–,drug-induced liver injury reported,no drug-induced liver injury reported,no drug-induced liver injury reported
CC(=O)[O-].[Na+] [SODIUM ACETATE],drug-induced liver injury reported,no drug-induced liver injury reported,no drug-induced liver injury reported,–,–,–
Nc1ccc(S(=O)(=O)Nc2ccccn2)cc1 [SULFAPYRIDINE],–,–,–,drug-induced liver injury reported,no drug-induced liver injury reported,no drug-induced liver injury reported
CCC1=C(C[C@H]2NCCc3cc(OC)c(OC)cc32)C[C@H]2c3cc(OC)c(OC)cc3CCN2C1 [DEHYDROEMETINE],–,–,–,drug-induced liver injury reported,no drug-induced liver injury reported,no drug-induced liver injury reported
FC(F)(F)C(Cl)Br (centres undefined) [HALOTHANE],–,–,–,drug-induced liver injury reported,drug-induced liver injury reported,drug-induced liver injury reported
Cc1onc(-c2c(F)cccc2Cl)c1C(=O)N[C@@H]1C(=O)N2[C@@H]1SC(C)(C)[C@@H]2C(=O)O [FLOXACILLIN],–,–,–,drug-induced liver injury reported,drug-induced liver injury reported,no drug-induced liver injury reported
CCCCCCCCCCCCCCCCCC(=O)O.CC[C@H]1OC(=O)[C@H](C)[C@@H](O[C@H]2C[C@@](C)(OC)[C@@H](O)[C@H](C)O2)[C@H](C)[C@@H](O[C@@H]2O[C@H](C)C[C@H](N(C)C)[C@H]2O)[C@](C)(O)C[C@@H](C)C(=O)[C@H](C)[C@@H](O)[C@]1(C)O [ERYTHROMYCIN STEARATE],–,–,–,no drug-induced liver injury reported,drug-induced liver injury reported,no drug-induced liver injury reported
O=C(NCC1CCCCN1)c1cc(OCC(F)(F)F)ccc1OCC(F)(F)F (centres undefined) [FLECAINIDE],–,–,–,no drug-induced liver injury reported,drug-induced liver injury reported,no drug-induced liver injury reported
Oc1ncnc2[nH]ncc12 [ALLOPURINOL],–,–,–,drug-induced liver injury reported,drug-induced liver injury reported,no drug-induced liver injury reported
O=S(=O)([O-])CCS.[Na+] [MESNA],–,–,–,drug-induced liver injury reported,no drug-induced liver injury reported,no drug-induced liver injury reported
CC(=O)[O][Zn][O]C(C)=O [ZINC ACETATE ANHYDROUS],drug-induced liver injury reported,no drug-induced liver injury reported,no drug-induced liver injury reported,–,–,–
